The target of experiment [1] is T1, Phospho-EGFR (Tyr1068) in A431 cells (Homo sapiens, UniProt P00533).
T1 construct: endogenous in cells; host or cells: A431
The experiment is described as follows: HTRF pEGFR/total EGFR in A431 cells with EGF stimulation. Format: cell-based. The conditions noted are these: ratio pEGFR/total EGFR, compound 2.5 hours then 100 ng/ml EGF 30 mins. The gist of the method:
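A431 cells were plated at 20,000 per well, allowed 24 h to adhere, then given compound for 2.5 h (0.1% DMSO final). They were then stimulated with 100 ng/ml EGF for 30 min and lysed. HTRF measured Tyr1068-phospho and total EGFR at 665/620 nm, with pEGFR/total EGFR expressed as % of the 0 μM control.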

The target in experiment [2] is T2, Phospho-EGFR (Tyr1068) in H1975 C797S cells (CRISPR-edited EGFR C797S) (Homo sapiens, UniProt P00533, C797S/L858R/T790M).
T2 construct: host or cells: H1975 C797S (CRISPR-edited)
Nature of the experiment: HTRF pEGFR/total EGFR in H1975 C797S cells. Format: cell-based. The conditions noted are these: ratio pEGFR/total EGFR, compound 3 hours. In a few lines:
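Adhered H1975 C797S cells got compound for 3 h in duplicate at 0.1% DMSO final, then were lysed 30 min at room temperature. HTRF kits quantified phospho-EGFR (Tyr1068) and total EGFR (665/620 nm); results are pEGFR/total EGFR ratio as percent of 0 μM control.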
For orientation: TR-FRET usually uses a lanthanide donor and a delayed reading to cut background.

In experiment [3] the target is CtermHisTag-mEGFR Wild type (Homo sapiens, UniProt P00533). The experiment is described as follows: biochemical.
Experiment [4] concerns the target T3, Phospho-EGFR (Tyr1068) in H1975 cells (Homo sapiens, UniProt P00533, L858R/T790M).
T3 construct: host or cells: H1975
Nature of the experiment: HTRF pEGFR/total EGFR in H1975 cells. Format: cell-based. To be noted: ratio pEGFR/total EGFR, compound 3 hours. The gist of the method: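 H1975 cells (EGFR L858R/T790M) treated 3 h with compound in 0.1% DMSO, in duplicate, 24 h after plating. Lysates assayed by HTRF for pEGFR (Tyr1068) and total EGFR at 665/620 nm; values are pEGFR/total EGFR ratio as percent of 0 μM control.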

Sequence of CtermHisTag-mEGFR Wild type (P00533 whole entry): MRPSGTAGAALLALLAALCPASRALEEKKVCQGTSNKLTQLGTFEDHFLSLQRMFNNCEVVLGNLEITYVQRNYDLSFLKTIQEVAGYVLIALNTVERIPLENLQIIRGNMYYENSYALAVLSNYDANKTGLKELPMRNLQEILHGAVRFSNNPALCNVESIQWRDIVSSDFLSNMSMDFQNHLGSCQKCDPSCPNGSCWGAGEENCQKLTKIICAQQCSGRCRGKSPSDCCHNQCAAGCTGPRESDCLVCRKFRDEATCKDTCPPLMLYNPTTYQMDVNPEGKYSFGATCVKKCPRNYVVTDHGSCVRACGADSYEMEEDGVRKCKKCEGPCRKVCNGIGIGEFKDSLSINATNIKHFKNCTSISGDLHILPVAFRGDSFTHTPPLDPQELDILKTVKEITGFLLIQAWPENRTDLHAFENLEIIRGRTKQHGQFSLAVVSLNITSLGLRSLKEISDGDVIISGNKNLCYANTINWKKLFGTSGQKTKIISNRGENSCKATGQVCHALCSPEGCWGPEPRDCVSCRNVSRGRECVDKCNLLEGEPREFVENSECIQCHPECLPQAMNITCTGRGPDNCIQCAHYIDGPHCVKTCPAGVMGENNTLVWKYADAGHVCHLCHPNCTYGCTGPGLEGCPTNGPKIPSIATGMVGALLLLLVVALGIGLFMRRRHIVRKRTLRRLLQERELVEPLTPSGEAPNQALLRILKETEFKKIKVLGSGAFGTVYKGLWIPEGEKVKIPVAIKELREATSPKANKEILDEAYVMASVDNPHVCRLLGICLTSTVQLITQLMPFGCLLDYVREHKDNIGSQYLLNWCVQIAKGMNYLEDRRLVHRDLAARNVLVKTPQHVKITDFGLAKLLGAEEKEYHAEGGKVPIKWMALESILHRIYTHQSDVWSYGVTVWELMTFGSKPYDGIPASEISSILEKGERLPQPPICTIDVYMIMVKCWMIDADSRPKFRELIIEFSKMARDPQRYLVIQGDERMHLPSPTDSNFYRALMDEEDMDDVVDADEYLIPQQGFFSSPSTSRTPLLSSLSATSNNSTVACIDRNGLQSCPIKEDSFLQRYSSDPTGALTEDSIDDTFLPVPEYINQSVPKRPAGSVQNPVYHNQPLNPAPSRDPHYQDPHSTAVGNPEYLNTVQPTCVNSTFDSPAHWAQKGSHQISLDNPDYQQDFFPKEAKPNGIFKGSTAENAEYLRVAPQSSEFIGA
T3 sequence (P00533 25-1210 T790M/L858R): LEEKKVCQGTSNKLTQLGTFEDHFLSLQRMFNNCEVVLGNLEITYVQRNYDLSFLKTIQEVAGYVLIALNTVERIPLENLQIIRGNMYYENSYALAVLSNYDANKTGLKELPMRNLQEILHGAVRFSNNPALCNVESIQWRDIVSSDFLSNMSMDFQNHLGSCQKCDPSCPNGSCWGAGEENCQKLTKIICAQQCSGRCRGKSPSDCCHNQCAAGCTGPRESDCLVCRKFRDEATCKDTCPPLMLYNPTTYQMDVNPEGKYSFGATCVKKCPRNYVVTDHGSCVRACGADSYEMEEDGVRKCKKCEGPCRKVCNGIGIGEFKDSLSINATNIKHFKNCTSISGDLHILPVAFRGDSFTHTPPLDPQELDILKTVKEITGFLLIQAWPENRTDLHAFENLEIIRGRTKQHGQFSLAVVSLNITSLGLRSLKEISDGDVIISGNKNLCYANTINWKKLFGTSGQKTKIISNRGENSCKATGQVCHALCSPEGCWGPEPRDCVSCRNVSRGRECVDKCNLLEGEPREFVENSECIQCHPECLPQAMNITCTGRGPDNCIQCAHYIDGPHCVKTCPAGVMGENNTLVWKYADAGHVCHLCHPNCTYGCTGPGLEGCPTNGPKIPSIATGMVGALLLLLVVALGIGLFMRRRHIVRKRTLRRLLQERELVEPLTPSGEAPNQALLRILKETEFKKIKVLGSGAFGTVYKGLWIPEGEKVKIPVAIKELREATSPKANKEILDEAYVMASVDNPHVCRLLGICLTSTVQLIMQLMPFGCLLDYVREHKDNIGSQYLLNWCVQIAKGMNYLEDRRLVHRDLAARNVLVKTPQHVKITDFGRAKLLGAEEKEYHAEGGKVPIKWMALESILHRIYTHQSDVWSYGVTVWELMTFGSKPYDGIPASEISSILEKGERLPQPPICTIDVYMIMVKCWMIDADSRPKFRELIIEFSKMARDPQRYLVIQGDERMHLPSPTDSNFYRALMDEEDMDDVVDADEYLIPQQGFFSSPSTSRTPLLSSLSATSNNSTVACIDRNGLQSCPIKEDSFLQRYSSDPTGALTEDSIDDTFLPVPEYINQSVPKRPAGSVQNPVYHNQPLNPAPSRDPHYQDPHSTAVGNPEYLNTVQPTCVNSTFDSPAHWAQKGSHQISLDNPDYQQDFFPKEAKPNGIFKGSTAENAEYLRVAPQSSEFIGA
T1 sequence (P00533 25-1210): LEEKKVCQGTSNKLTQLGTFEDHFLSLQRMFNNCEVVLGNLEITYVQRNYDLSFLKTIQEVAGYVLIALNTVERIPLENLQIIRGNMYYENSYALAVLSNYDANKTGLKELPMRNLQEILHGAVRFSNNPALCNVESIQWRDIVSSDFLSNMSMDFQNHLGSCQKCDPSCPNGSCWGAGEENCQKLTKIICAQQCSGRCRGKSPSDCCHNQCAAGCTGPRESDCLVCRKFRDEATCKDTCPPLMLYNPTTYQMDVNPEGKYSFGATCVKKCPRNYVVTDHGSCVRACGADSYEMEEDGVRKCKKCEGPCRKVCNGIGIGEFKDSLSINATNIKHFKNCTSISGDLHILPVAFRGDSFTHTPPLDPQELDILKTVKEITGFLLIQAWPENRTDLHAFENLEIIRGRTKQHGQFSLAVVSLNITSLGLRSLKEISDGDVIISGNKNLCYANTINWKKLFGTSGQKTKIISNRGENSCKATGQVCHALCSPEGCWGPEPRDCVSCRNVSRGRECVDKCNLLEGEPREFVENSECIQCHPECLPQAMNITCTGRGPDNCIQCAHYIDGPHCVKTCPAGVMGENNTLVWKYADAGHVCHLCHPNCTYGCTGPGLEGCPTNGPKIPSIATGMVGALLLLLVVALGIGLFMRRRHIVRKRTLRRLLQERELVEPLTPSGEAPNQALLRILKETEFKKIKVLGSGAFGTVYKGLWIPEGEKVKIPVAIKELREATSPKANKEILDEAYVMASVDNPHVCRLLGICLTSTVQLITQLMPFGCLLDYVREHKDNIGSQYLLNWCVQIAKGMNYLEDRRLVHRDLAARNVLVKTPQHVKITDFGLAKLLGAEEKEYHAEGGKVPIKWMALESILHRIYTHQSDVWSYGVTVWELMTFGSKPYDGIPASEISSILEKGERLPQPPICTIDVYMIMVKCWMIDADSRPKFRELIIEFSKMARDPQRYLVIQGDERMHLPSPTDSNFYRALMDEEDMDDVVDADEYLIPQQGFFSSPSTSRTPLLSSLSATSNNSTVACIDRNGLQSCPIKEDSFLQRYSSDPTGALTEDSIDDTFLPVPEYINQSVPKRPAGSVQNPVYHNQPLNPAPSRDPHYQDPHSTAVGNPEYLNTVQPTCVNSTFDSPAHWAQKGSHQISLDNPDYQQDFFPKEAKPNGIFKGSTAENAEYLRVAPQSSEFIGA
T2 sequence (P00533 25-1210 T790M/C797S/L858R): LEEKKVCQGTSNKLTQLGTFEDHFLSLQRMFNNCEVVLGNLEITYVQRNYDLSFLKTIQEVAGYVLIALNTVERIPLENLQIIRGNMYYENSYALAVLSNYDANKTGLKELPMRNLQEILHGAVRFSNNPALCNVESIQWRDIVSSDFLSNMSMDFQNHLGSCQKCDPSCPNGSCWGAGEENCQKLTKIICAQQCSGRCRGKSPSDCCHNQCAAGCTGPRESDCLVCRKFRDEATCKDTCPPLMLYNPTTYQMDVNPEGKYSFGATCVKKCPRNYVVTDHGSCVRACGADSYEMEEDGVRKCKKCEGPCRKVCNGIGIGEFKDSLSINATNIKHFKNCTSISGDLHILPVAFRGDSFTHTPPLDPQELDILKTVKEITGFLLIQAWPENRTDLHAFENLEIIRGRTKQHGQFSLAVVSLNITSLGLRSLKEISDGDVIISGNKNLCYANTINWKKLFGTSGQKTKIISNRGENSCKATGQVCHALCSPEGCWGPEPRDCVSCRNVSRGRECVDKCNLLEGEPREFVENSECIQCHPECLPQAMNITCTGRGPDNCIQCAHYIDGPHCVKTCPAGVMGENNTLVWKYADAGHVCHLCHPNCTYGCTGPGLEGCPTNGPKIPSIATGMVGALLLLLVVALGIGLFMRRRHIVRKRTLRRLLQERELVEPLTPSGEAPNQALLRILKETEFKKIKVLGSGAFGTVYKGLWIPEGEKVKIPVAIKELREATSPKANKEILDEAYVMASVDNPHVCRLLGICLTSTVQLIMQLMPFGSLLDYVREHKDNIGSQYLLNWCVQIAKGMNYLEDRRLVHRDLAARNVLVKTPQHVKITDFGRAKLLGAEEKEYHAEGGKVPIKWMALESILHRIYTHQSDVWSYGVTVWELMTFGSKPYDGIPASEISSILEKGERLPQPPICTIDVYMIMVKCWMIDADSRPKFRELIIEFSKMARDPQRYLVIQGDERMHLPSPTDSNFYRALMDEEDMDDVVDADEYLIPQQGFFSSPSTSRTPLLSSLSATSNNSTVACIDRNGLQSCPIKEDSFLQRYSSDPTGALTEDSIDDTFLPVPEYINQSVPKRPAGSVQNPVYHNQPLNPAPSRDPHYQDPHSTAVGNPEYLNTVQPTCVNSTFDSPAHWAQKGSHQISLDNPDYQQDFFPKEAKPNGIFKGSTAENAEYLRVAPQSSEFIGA

As to `C#Cc1cc(=O)n2c3nc(ncc13)Nc1cccc(c1)OCCC2` [Example 186, 1^5-ethynyl-1^7,1^8-dihydro-4-oxa-2-aza-1(2,8)-pyrido[2,3-d]pyrimidina-3(1,3)-benzenacycloheptaphan-1^7-one], the IC50 – broadly, the concentration at which inhibition is half-maximal – was more than 3000 nM in experiment [1], more than 3000 nM in experiment [2], more than 10000 nM in experiment [3] and more than 3000 nM in experiment [4].
For the compound `C#Cc1cc(=O)n(-c2ccccc2)c2nc(Nc3ccc(N(C)C(=O)CCOC)cc3OC)ncc12` [Example 36, N-(4-((5-Ethynyl-7-oxo-8-phenyl-7,8-dihydropyrido[2,3-d]pyrimidin-2-yl)amino)-3-methoxyphenyl)-3-methoxy-N-methylpropanamide], the half-inhibitory concentration (IC50) in experiment [1] was more than 3000 nM; in experiment [2] it was 1000 to 3000 nM; in experiment [3], 1000 to 10000 nM; in experiment [4] it was 1000 to 3000 nM.
Regarding `C#Cc1cc(=O)n2c3nc(ncc13)Nc1cccc(c1)OC/C=C\C2` [Example 187, (Z)-1^5-ethynyl-1^7,1^8-dihydro-4-oxa-2-aza-1(2,8)-pyrido[2,3-d]pyrimidina-3(1,3)-benzenacyclooctaphan-6-en-1^7-one], the IC50 is more than 3000 nM in experiment [1], 500 to 1000 nM in experiment [2], 1000 to 10000 nM in experiment [3] and less than 500 nM in experiment [4].
For `C#Cc1c(-c2ccccc2Cl)c(=O)n(C)c2nc(Nc3ccc(N(C)CCN(C)C)cc3)ncc12` [Example 126] the same measures were 1000 to 3000 nM, more than 3000 nM, less than 1000 nM and 1000 to 3000 nM.
As for `C#Cc1cc(=O)n(C2CCCC2)c2nc(Nc3cccc(N(C)[C@H]4C[C@H](CS(C)(=O)=O)C4)c3)ncc12` [Example 205], the half-maximal inhibitory concentration (IC50) was more than 3000 nM in experiment [1], more than 3000 nM in experiment [2], less than 1000 nM in experiment [3] and more than 3000 nM in experiment [4].
Take `C#Cc1c(-c2ccccc2Cl)c(=O)n(C)c2nc(Nc3cccc(CO)c3)ncc12` [Example 132, 6-(2-chlorophenyl)-5-ethynyl-2-{[3-(hydroxymethyl)phenyl]amino}-8-methylpyrido[2,3-]pyrimidin-7-one]: the 50% inhibitory concentration (IC50) is 1000 to 3000 nM in experiment [1], 1000 to 3000 nM in experiment [2], less than 1000 nM in experiment [3] and 500 to 1000 nM in experiment [4].
Turning to `C#Cc1cc(=O)n2c3nc(ncc13)Nc1ccc(N3CCN(C)CC3)c(c1)CCNC(=O)C2` [Example 227, 1^5-Ethynyl-3^4-(4-Methylpiperazin-1-yl)-1^7,1^8-dihydro-2,6-diaza-1(2,8)-pyrido[2,3-d]pyrimidina-3(1,3)-benzenacyclooctaphane-1^7,7-dione], the IC50 is more than 3000 nM in experiment [1], more than 3000 nM in experiment [2], 1000 to 10000 nM in experiment [3] and more than 3000 nM in experiment [4].
Regarding `C#Cc1cc(=O)n(-c2ccccc2)c2nc(Nc3ccc(N4CCC(N5CC(C(C)(C)O)C5)CC4)cc3)ncc12` [Example 40, 5-Ethynyl-2-[(4-{4-[3-(2-hydroxypropan-2-yl)azetidin-1-yl]piperidin-1-yl}phenyl)amino]-8-phenylpyrido[2,3-d]pyrimidin-7-one], the half-inhibitory concentration (IC50) is 1000 to 3000 nM in experiment [1], less than 500 nM in experiment [2], less than 1000 nM in experiment [3] and less than 500 nM in experiment [4].
Turning to `C#Cc1cc(=O)n(-c2ccccc2)c2nc(NC3CCN(S(C)(=O)=O)CC3)ncc12` [Example 10, 5-Ethynyl-2-((1-(methylsulfonyl)piperidin-4-yl)amino)-8-phenylpyrido[2,3-d]pyrimidin-7(8H)-one], the IC50 in experiment [1] was more than 3000 nM; in experiment [2], more than 3000 nM; in experiment [3], less than 1000 nM; in experiment [4], more than 3000 nM.
For `C#Cc1cc(=O)n([C@H]2CC[C@@H](NC(=O)CCC(=O)OC)CC2)c2nc(Nc3ccc(N4CCN(C)CC4)cc3)ncc12` [Example 92, Methyl 4-(((1s,4s)-4-(5-ethynyl-2-((4-(4-methylpiperazin-1-yl)phenyl)amino)-7-oxopyrido[2,3-d]pyrimidin-8(7H)-yl)cyclohexyl)amino)-4-oxobutanoate], the IC50 in experiment [1] was more than 3000 nM; in experiment [2], more than 3000 nM; in experiment [3] it was 1000 to 10000 nM; in experiment [4], more than 3000 nM.
`C#Cc1cc(=O)n2c3nc(ncc13)Nc1ccc(N3CCN(CCOC)CC3)c(c1)NC(=O)CCC2` [Example 236, 1^5-Ethynyl-3^4-(4-(2-methoxyethyl)piperazin-1-yl)-1^7,1^8-dihydro-2,4-diaza-1(2,8)-pyrido[2,3-d]pyrimidina-3(1,3)-benzenacyclooctaphane-1^7,5-dione]: the half-maximal inhibitory concentration (IC50) is 1000 to 3000 nM in experiment [1], less than 500 nM in experiment [2], less than 1000 nM in experiment [3] and less than 500 nM in experiment [4].
Turning to `C#Cc1cc(=O)n(C)c2nc(Nc3ccc(N4CCN(C)CC4)c(C(=O)NCC4CCCC4)c3)ncc12` [Example 221, N-(Cyclopentylmethyl)-5-({5-ethynyl-8-methyl-7-oxopyrido[2,3-d]pyrimidin-2-yl}amino)-2-(4-methylpiperazin-1-yl)benzamide], the 50% inhibitory concentration (IC50) in experiment [1] is more than 3000 nM; in experiment [2], 1000 to 3000 nM; in experiment [3] it was 1000 to 10000 nM; in experiment [4], 500 to 1000 nM.
For `C#Cc1cc(=O)n([C@H]2CC[C@@H](NC(=O)CCCN(C)C)CC2)c2nc(Nc3ccc(N4CCN(C)CC4)cc3)ncc12` [Example 97, 4-(Dimethylamino)-N-[(1s,4s)-4-(5-ethynyl-2-{[4-(4-methylpiperazin-1-yl)phenyl]amino}-7-oxopyrido[2,3-d]pyrimidin-8-yl)cyclohexyl]butanamide] the same measures were more than 3000 nM, 1000 to 3000 nM, more than 10000 nM and 1000 to 3000 nM.
Regarding `C#Cc1c(C)c(=O)n2c3nc(ncc13)Nc1ccc(N3CCN(C)CC3)c(c1)OCCCCC2` [Example 229, 1^5-Ethynyl-1^6-Methyl-3^4-(4-methylpiperazin-1-yl)-1^7,1^8-dihydro-4-oxa-2-aza-1(2,8)-pyrido[2,3-d]pyrimidina-3(1,3)-benzenacyclononaphan-1^7-one], the IC50 in experiment [1] is less than 500 nM; in experiment [2], less than 500 nM; in experiment [3], less than 1000 nM; in experiment [4], less than 500 nM.
As for `C#Cc1cc(=O)n(C)c2nc(Nc3ccc(N4CCN(C)CC4)c(OCCC4CCCCC4)c3)ncc12` [Example 213, 2-((3-(2-Cyclohexylethoxy)-4-(4-methylpiperazin-1-yl)phenyl)amino)-5-ethynyl-8-methylpyrido[2,3-d]pyrimidin-7(8H)-one], the IC50 in experiment [1] was 1000 to 3000 nM; in experiment [2] it was 500 to 1000 nM; in experiment [3] it was less than 1000 nM; in experiment [4] it was less than 500 nM.
For `C#Cc1cc(=O)n(-c2ccc(NC(=O)C=C)cc2)c2nc(Nc3ccccc3OC)ncc12` [Example 88, N-(4-(5-Ethynyl-2-((2-methoxyphenyl)amino)-7-oxopyrido[2,3-d]pyrimidin-8(7H)-yl)phenyl)acrylamide] the same measures were more than 3000 nM, more than 3000 nM, 1000 to 10000 nM and more than 3000 nM.
For the compound `C#Cc1cc(=O)n2c3nc(ncc13)Nc1ccc(N3CCN(C)CC3)c(c1)OCCCCCC2` [Example 230, 1^5-ethynyl-3^4-(4-methylpiperazin-1-yl)-1^7,1^8-dihydro-4-oxa-2-aza-1(2,8)-pyrido[2,3-d]pyrimidina-3(1,3)-benzenacyclodecaphan-1^7-one], the IC50 in experiment [1] is 1000 to 3000 nM; in experiment [2] it was less than 500 nM; in experiment [3] it was less than 1000 nM; in experiment [4], less than 500 nM.
